From ChEMBL document CHEMBL6182921, “Structural Optimization of Next-Generation TRK Inhibitors against Acquired Drug Resistance Mutations for the Treatment of Solid Tumors” (J Med Chem, 2025)

How the values were obtained:
BaF3 [1] = assay: Antiproliferative activity against mouse BaF3 cells harbouring MPRIP-TRKA G595R mutant assessed as inhibition of cell growth measured after 72 hrs by CCK-8 method; format: functional, cell-based; details: BaF3, 72 h
[2] = biological target: High affinity nerve growth factor receptor (Homo sapiens, UniProt P04629)
Description: Inhibition of TRKA (unknown origin) incubated for 1 hr in presence of ATP by ELISA method

BaF3 [3] = assay: cells; details: Mus musculus, BaF3, 72 h
Description: Antiproliferative activity against mouse BaF3 cells harbouring MPRIP-TRKA G667C mutant assessed as inhibition of cell growth measured after 72 hrs by CCK-8 method

BaF3 [4] = assay: Antiproliferative activity against mouse BaF3 cells harbouring MPRIP-TRKA G595R mutant assessed as inhibition of cell growth at 1000 nmol/L measured after 72 hrs by CCK-8 method relative to control; format: functional
BaF3 [5] = assay: cells; details: Mus musculus, BaF3, 72 h; remark: listed apart in the source
Description: Antiproliferative activity against mouse BaF3 cells harbouring xDFG (TRKA-G667C) mutation measured after 72 hrs by Cell-titer glo assay

BaF3 [6] = format: functional, cell-based; details: Mus musculus

Chain of High affinity nerve growth factor receptor (P04629 whole entry): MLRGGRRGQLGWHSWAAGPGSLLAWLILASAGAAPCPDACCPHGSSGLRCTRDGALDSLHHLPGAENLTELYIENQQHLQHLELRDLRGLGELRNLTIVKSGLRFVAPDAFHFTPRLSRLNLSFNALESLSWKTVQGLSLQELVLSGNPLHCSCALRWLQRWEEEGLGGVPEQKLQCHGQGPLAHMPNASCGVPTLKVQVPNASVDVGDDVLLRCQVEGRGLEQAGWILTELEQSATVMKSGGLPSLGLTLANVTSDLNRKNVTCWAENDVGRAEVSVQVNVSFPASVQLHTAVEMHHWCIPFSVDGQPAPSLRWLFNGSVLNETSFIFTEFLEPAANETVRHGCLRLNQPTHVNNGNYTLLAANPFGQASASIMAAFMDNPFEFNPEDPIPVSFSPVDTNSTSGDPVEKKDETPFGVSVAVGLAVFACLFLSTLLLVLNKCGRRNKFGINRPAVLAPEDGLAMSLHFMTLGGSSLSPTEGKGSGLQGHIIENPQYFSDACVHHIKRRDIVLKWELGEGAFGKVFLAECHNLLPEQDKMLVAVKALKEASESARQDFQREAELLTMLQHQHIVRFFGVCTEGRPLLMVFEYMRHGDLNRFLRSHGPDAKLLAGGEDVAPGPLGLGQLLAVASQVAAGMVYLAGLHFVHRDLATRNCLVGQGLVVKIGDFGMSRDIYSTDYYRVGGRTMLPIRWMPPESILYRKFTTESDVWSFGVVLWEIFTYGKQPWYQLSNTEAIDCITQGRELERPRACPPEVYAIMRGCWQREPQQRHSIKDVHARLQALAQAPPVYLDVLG

IC50 (BaF3 [1]) [nM] | IC50 (BaF3 [3]) [nM] | IC50 (BaF3 [5]) [nM] | Structure (SMILES) | also measured
> 1000 | 112 |  | CC1CN(Cc2ccc(NC(=O)c3cc(N4CCC[C@@H]4c4cc(F)ccc4F)c[nH]c3=O)cc2)CCN1S(=O)(=O)N1CCOCC1 (stereo not given in full) | IC50 [2]: 1.6 nM
 | 184 |  | CCCN(CCC)Cc1ccc(NC(=O)c2cc(N3CCC[C@@H]3c3cc(F)ccc3F)c[nH]c2=O)cc1 | inhibition at 1 µM (BaF3 [4]): 45.2%
37.9 | 171 | 124 | C[C@@H]1CCc2ncc(F)cc2[C@H]2CCCN2c2ccn3ncc(c3n2)C(=O)N1 [SELITRECTINIB] | 

Further lines, the compound ahead of its results:

Structure (SMILES) | IC50 (BaF3 [1]) [nM] | IC50 (BaF3 [3]) [nM] | IC50 (BaF3 [5]) [nM] | also measured
C[C@H]1CNC(=O)c2cnn3ccc(nc23)N[C@H](C)c2cc(F)ccc2O1 [REPOTRECTINIB] |  |  | 15 | 
C[C@@H](N)COc1ccc(-c2cnc3ccc(N[C@H](C)c4cccc(F)c4)nn23)cc1 [TALETRECTINIB] |  |  |  | IC50 (BaF3 [6]): 304 nM
